Laboratory results: patent US9044464B2, “No-releasing guanidine-coxib anti-cancer agents” (Euclises Pharmaceuticals, Inc., priority 2012, dated 2015)

System: PGE2 levels
Test: Rat Air-Pouch Model for Acute Inflammation (carrageenan challenge, exudate volume and PGE2 by ELISA)
Type: in vivo, Sprague-Dawley rats
Conditions: for Volume (mL), collected exudate volume, mean / PGE2 (pg/mL) in exudate, mean: 0.01 mmol/kg oral gavage 2 h before intra-pouch 1% carrageenan, exudate collected 4 h after carrageenan; for Volume (mL), collected exudate volume, mean: 5 rats/group, vehicle mean 5.7; for PGE2 (pg/mL) in exudate, mean: ELISA, vehicle mean 4357.7; for reduction in exudate PGE2 release / reduction in collected exudate volume: 0.01 mmol/kg oral pretreatment, versus vehicle; for reduction in collected exudate volume: significant
Method: A study of celecoxib release from Example Compound 5 is assessed by measurement of PGE2 levels, which are indicative of inflammatory response.
Animals: Sprague-Dawley rats (Charles River Laboratories, R #3234, PO #738990, male, 160-180 g) were received, individually examined, and housed in cages of five rats each. The rats were ear notched for identification purposes.
Compounds and dosing solutions: The vehicle was prepared by dissolving 40 g (2-hydroxypropyl)-β-cyclodextrin (HP-β-CD, Sigma, Cat. 332593, lot MKBJ5858V) in 160 mL sterile saline for injection, USP (Hospira, lot 26-801-FW) making a […] solution which was filter sterilized (0.2 μm, Nalgene, Cat. 151-4020, lot 1095610). A 1% carrageenan solution was prepared by dissolving […] (Fluka, Cat. 22049, lot 1318338) in hot 60 mL sterile saline for injection, USP. This solution was stored at 4-8° C. Test compounds were dissolved in DMSO (Fisher Scientific, Cat. D128-500, lot 874999) to make 75 mM stocks. 0.25 mL of compound DMSO stocks were mixed with 12.5 mL of HP-β-CD solution at 50° C. (maximum DMSO concentration was 2% of the final volume of vehicle). Final concentration of all test compounds was 1.5 mM and compounds were dosed within 2 hours of preparation at 0.01 mmol/kg ([…] of test compound per rat).
Day 0—Air pouch initiation: The rats were anesthetized in a biological cabinet, the nape of the neck was cleansed with 70% isopropanol (Butler Schein Animal Health, Cat. 002498, lot 29EMS07104547) followed by 1% povidone-iodine solution (Ricca Chemical Co., Cat. 3955-16, lot 2205469). Twenty mL of sterile (0.22 μm, Millipore, Cat. SLGP033RS, lot R2KA55925, exp 08/2015) air was injected subcutaneously (SC) using a 23G×1½ inch needle fixed to a 20 mL syringe. The rats were returned to routine housing. No adverse reactions were observed.
Day 3—Air pouch maintenance: The rats were anesthetized in a biological cabinet, the nape of the neck was cleansed with 70% isopropanol followed by 1% povidone-iodine solution. Ten mL of sterile air was injected SC using a 23G×1½ inch needle fixed to a 20 mL syringe. The rats were returned to routine housing in clean cages. No adverse reactions were observed.
Day 6—Compound administration and carrageenan insult: At commencement of the study, each rat was weighed and sorted into treatment groups of 5 rats/group based upon average weight. Each rat was dosed orally via gavage at 6.809 mL/kg (1.6 mL/235 g) with their respective test material/vehicle. Two hours after test material/vehicle administration, the rats were injected with 1.0 mL of the room temperature 1% carrageenan saline solution into the air pouch. Four hours after carrageenan injection, the rats were anesthetized and 5 mL of the exudate buffer was injected into the air pouch. The pouch was gently massaged, the exudate immediately removed, and exudate volume recorded. The exudate was collected in a serum separator tube on an ice bath. The exudates were centrifuged (refrigerated) and an aliquot of the supernatant was stored in a labeled Eppendorf tube at −80° C.
Termination of Study: Animals were euthanized via CO2 asphyxiation at the completion of the in-life portion of this study and carcasses were disposed of according to standard protocols.
Data analysis: The exudate samples were thawed to room temperature and assayed by ELISA for PGE2 (R&D Systems, Cat. KGE004B, lot 307711). Statistical significance of treatments on mean exudate volumes are determined by comparison of means for treatment groups with vehicle group. Mean cytokine concentrations and standard deviations are determined for each group. Statistical significance of treatments on cytokine concentrations are determined for each compound group compared to vehicle group. Statistical significance (p-value) was calculated vs control groups by Student's t-Test.

SMILES | Volume (mL), collected exudate volume, mean [mL] | PGE2 (pg/mL) in exudate, mean [pg/mL] | reduction in exudate PGE2 release [%] | reduction in collected exudate volume [%]
Cc1ccc(-c2cc(C(F)(F)F)nn2-c2ccc(S(N)(=O)=O)cc2)cc1 [celecoxib, 4-[5-(4-Methylphenyl)-3-(trifluoromethyl)-1H-pyrazol-1-yl]benzenesulfonamide] | 4.6 | 907.1 | 80 | 19
Cc1ccc(-c2cc(C(F)(F)F)nn2-c2ccc(S(=O)(=O)NC(=O)[C@@H](N)CCCNC(=N)N)cc2)cc1 [Example 5, (S)-2-Amino-5-guanidino-N-((4-(5-(p-tolyl)-3-(trifluoromethyl)-1H-pyrazol-1-yl)phenyl)sulfonyl)pentanamide] | 4.3 | 896.0 | 80 | 24
